Values quoted from earlier work, collected in US6532437B1, “Crystalline frap complex” (Cornell Research Foundation, Inc., priority 1996, dated 2003).

Assays:
[1] = tested on: Chronic GVHD in BDF1 mice; conditions: BDF1 mice given DBA/2 spleen:lymph node cells
[2] = tested on: spontaneous SLE in MRL/lpr-mice

| Structure (SMILES) | activity in CGVHD model [1] | effect on course of disease [2] |
| --- | --- | --- |
| C[C@]12C=CC(=O)C=C1CC[C@@H]1[C@@H]2[C@@H](O)C[C@@]2(C)[C@H]1CC[C@]2(O)C(=O)CO [prednisolone] | active |  |
| Cc1oncc1C(=O)Nc1ccc(C(F)(F)F)cc1 [leflunomide] | active | can prevent and reverse the course of disease |
| O=P1(N(CCCl)CCCl)NCCCO1 (centres unmarked) [cyclophosphamide] | active | can prevent and reverse the course of disease |
